Measured values from paper PMC7544826 (Communications Biology, 2020).
“Also recorded” adds a separate entry of the source.

What was measured:
Notum [1] = molecular target: T1, Notum (Homo sapiens, UniProt Q6P988, C330S); assay: SPR equilibrium binding to biotinylated Notum on streptavidin chip; parameters: The human Notum enzyme core comprising amino acids S81–T451 with a C330S mutation; made in house; dialyzed conditioned medium used without purification; details: result in words
T1 sequence (Q6P988 81-451 C330S): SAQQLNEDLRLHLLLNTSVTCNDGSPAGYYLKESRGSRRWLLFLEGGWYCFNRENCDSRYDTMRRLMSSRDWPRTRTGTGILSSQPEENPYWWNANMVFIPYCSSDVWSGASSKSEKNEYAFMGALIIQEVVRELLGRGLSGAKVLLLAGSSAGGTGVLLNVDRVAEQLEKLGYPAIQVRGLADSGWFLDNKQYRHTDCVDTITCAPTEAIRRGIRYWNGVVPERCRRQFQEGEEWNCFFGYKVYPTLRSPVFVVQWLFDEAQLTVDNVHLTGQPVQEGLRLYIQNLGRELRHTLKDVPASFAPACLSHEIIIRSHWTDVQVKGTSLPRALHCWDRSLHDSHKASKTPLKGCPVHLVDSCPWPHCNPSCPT
Experimental: The human Notum core sequence was cloned in a pHL-Avi3 vector[49] and co-transfected with the pDisplay_BirA-ER plasmid[50] into HEK293T cells with the media supplemented with 20 µM biotin. This procedure allows in vivo biotinylation to occur, and the dialyzed conditioned medium was directly used for SA sensor chip immobilization without protein purification. […] Approximately 2500 resonance units (RU) of the biotinylated Notum was coupled onto the chip. […] The response was plotted versus the concentration of the analytes and fitted by nonlinear regression to a one-site saturation binding model (GraphPad Prism 8).

Notum [2] = molecular target: T1, Notum; assay: Notum activity assay with OPTS as substrate; type: biochemical; parameters: The human Notum enzyme core comprising amino acids S81–T451 with a C330S mutation; made in house; dialyzed conditioned medium used without purification; details: result in words
Experimental: OPTS is a common lipase substrate with an octanoyl lipid linked to a fluorescent moiety. It is not a natural Notum substrate; however, it can be used to quantify the enzymatic activity of purified Notum protein[23],[25],[28]. […] The fluorescent lipase substrate OPTS was dissolved in water at a concentration of 20 µM. […] The inhibition curves were fitted with a one-site model with GraphPad Prism 8 software.

Notum [3] = molecular target: T1, Notum; assay: Thermal shift assay (SYPRO Orange) of Notum; details: compound 500 µM; for Thermoflour melting curve fluorescence of Notum: Fig 2c
Experimental: Reference wells, i.e. solutions without compounds were used to compare the melting temperature (Tm). The experiments were performed in triplicate.

1,5-dimethylxanthine [theobromine]
Binding to Notum (SPR response) (Notum [1]): did not observe significant responses; also recorded: do not bind Notum | Notum inhibitory effect in OPTS enzyme assay (Notum [2]): could not detect obvious Notum inhibitory effects | Thermoflour melting curve fluorescence of Notum (Notum [3]; Temperature 24.5): 1404.51 | Thermoflour melting curve fluorescence of Notum (Notum [3]; Temperature 25.5): 1219.92 | Thermoflour melting curve fluorescence of Notum (Notum [3]; Temperature 26.5): 1040.89 | Thermoflour melting curve fluorescence of Notum (Notum [3]; Temperature 27.5): 912.702 | Thermoflour melting curve fluorescence of Notum (Notum [3]; Temperature 28.5): 812.506 | Thermoflour melting curve fluorescence of Notum (Notum [3]; Temperature 29.5): 748.934 | Thermoflour melting curve fluorescence of Notum (Notum [3]; Temperature 30.5): 702.942 | Thermoflour melting curve fluorescence of Notum (Notum [3]; Temperature 31.5): 648.106 | Thermoflour melting curve fluorescence of Notum (Notum [3]; Temperature 32.5): 580.173 | Thermoflour melting curve fluorescence of Notum (Notum [3]; Temperature 33.5): 507.838 | Thermoflour melting curve fluorescence of Notum (Notum [3]; Temperature 34.5): 418.887 | Thermoflour melting curve fluorescence of Notum (Notum [3]; Temperature 35.5): 274.731 | Thermoflour melting curve fluorescence of Notum (Notum [3]; Temperature 36.5): 90.4697 | Thermoflour melting curve fluorescence of Notum (Notum [3]; Temperature 37.5): -139.16 | Thermoflour melting curve fluorescence of Notum (Notum [3]; Temperature 38.5): -392.32 | Thermoflour melting curve fluorescence of Notum (Notum [3]; Temperature 39.5): -608.25 | Thermoflour melting curve fluorescence of Notum (Notum [3]; Temperature 40.5): -782.991 | Thermoflour melting curve fluorescence of Notum (Notum [3]; Temperature 41.5): -908.263 | Thermoflour melting curve fluorescence of Notum (Notum [3]; Temperature 42.5): -987.266 | Thermoflour melting curve fluorescence of Notum (Notum [3]; Temperature 43.5): -1014 | Thermoflour melting curve fluorescence of Notum (Notum [3]; Temperature 44.5): -973.707 | Thermoflour melting curve fluorescence of Notum (Notum [3]; Temperature 45.5): -878.635 | Thermoflour melting curve fluorescence of Notum (Notum [3]; Temperature 46.5): -736.376 | Thermoflour melting curve fluorescence of Notum (Notum [3]; Temperature 47.5): -559.758 | Thermoflour melting curve fluorescence of Notum (Notum [3]; Temperature 48.5): -346.91 | Thermoflour melting curve fluorescence of Notum (Notum [3]; Temperature 49.5): -78.207 | Thermoflour melting curve fluorescence of Notum (Notum [3]; Temperature 50.5): 248.299 | Thermoflour melting curve fluorescence of Notum (Notum [3]; Temperature 51.5): 600.666 | Thermoflour melting curve fluorescence of Notum (Notum [3]; Temperature 52.5): 986.098 | Thermoflour melting curve fluorescence of Notum (Notum [3]; Temperature 53.5): 1440.99 | Thermoflour melting curve fluorescence of Notum (Notum [3]; Temperature 54.5): 1961.08 | Thermoflour melting curve fluorescence of Notum (Notum [3]; Temperature 55.5): 2560.53 | Thermoflour melting curve fluorescence of Notum (Notum [3]; Temperature 56.5): 3253.14 | Thermoflour melting curve fluorescence of Notum (Notum [3]; Temperature 57.5): 4045.69 | Thermoflour melting curve fluorescence of Notum (Notum [3]; Temperature 58.5): 5053.15 | Thermoflour melting curve fluorescence of Notum (Notum [3]; Temperature 59.5): 6367.38 | Thermoflour melting curve fluorescence of Notum (Notum [3]; Temperature 60.5): 8116.48 | Thermoflour melting curve fluorescence of Notum (Notum [3]; Temperature 61.5): 10309.5 | Thermoflour melting curve fluorescence of Notum (Notum [3]; Temperature 62.5): 12803.5 | Thermoflour melting curve fluorescence of Notum (Notum [3]; Temperature 63.5): 15345.7 | Thermoflour melting curve fluorescence of Notum (Notum [3]; Temperature 64.5): 17689.5 | Thermoflour melting curve fluorescence of Notum (Notum [3]; Temperature 65.5): 19737.1 | Thermoflour melting curve fluorescence of Notum (Notum [3]; Temperature 66.5): 21432.6 | Thermoflour melting curve fluorescence of Notum (Notum [3]; Temperature 67.5): 22887.7 | Thermoflour melting curve fluorescence of Notum (Notum [3]; Temperature 68.5): 24216 | Thermoflour melting curve fluorescence of Notum (Notum [3]; Temperature 69.5): 25446.3 | Thermoflour melting curve fluorescence of Notum (Notum [3]; Temperature 70.5): 26564.8 | Thermoflour melting curve fluorescence of Notum (Notum [3]; Temperature 71.5): 27592.2 | Thermoflour melting curve fluorescence of Notum (Notum [3]; Temperature 72.5): 28538.2 | Thermoflour melting curve fluorescence of Notum (Notum [3]; Temperature 73.5): 29406 | Thermoflour melting curve fluorescence of Notum (Notum [3]; Temperature 74.5): 30226.8 | Thermoflour melting curve fluorescence of Notum (Notum [3]; Temperature 75.5): 30994.2 | Thermoflour melting curve fluorescence of Notum (Notum [3]; Temperature 76.5): 31712.3 | Thermoflour melting curve fluorescence of Notum (Notum [3]; Temperature 77.5): 32380.8 | Thermoflour melting curve fluorescence of Notum (Notum [3]; Temperature 78.5): 33030.5 | Thermoflour melting curve fluorescence of Notum (Notum [3]; Temperature 79.5): 33697.5 | Thermoflour melting curve fluorescence of Notum (Notum [3]; Temperature 80.5): 34352.1 | Thermoflour melting curve fluorescence of Notum (Notum [3]; Temperature 81.5): 34969.9 | Thermoflour melting curve fluorescence of Notum (Notum [3]; Temperature 82.5): 35562.2 | Thermoflour melting curve fluorescence of Notum (Notum [3]; Temperature 83.5): 36162.5 | Thermoflour melting curve fluorescence of Notum (Notum [3]; Temperature 84.5): 36803.8 | Thermoflour melting curve fluorescence of Notum (Notum [3]; Temperature 85.5): 37475.6 | Thermoflour melting curve fluorescence of Notum (Notum [3]; Temperature 86.5): 38149.2 | Thermoflour melting curve fluorescence of Notum (Notum [3]; Temperature 87.5): 38788.7 | Thermoflour melting curve fluorescence of Notum (Notum [3]; Temperature 88.5): 39302.1 | Thermoflour melting curve fluorescence of Notum (Notum [3]; Temperature 89.5): 39800.1 | Thermoflour melting curve fluorescence of Notum (Notum [3]; Temperature 90.5): 40397.5 | Thermoflour melting curve fluorescence of Notum (Notum [3]; Temperature 91.5): 41008.7 | Thermoflour melting curve fluorescence of Notum (Notum [3]; Temperature 92.5): 41535.5 | Thermoflour melting curve fluorescence of Notum (Notum [3]; Temperature 93.5): 42071.6 | Thermoflour melting curve fluorescence of Notum (Notum [3]; Temperature 94.5): 42644 | Thermoflour melting curve fluorescence of Notum (Notum [3]; Temperature 95.5): 43225 | Thermoflour melting curve fluorescence of Notum (Notum [3]; Temperature 96.5): 43850.3 | Thermoflour melting curve fluorescence of Notum (Notum [3]; Temperature 97.5): 44460.4 | Effect on Tm of Notum (Notum [3]): little effect on the Tm | Melting temperature (Tm) of Notum (Notum [3]; Notum without compounds Tm 63.6 °C): 63.4 °C
